ChEMBL document CHEMBL1140310, “[Nalpha-benzylTyr1,cyclo(D-Asp5,Dap8)]- dynorphin A-(1-11)NH2 cyclized in the "address" domain is a novel kappa-opioid receptor antagonist” (J Med Chem, 2005)
pKi: −log10 of the molar value.

Experiments:
[1] = Relative binding affinity for kappa and delta opioid receptors
[2] = Inhibition of [3H]-DPDPE (cyclo[D-Pen2,D-Pen5]enkep halin) binding to delta opioid receptor expressed in CHO cells; format: cell-based
[3] = Relative binding affinity for kappa and mu opioid receptors
[4] = Inhibition of [3H]diprenorphine binding to kappa opioid receptor expressed in CHO cells; format: cell-based
[5] = Inhibition of [3H]DAMGO ([D-Ala2,NMePhe4,glyol]-enkephalin) binding to mu opioid receptor expressed in CHO cells; format: cell-based

| Ratio [1] | Ratio [3] | Structure (SMILES) | pKi [2] | pKi [4] | pKi [5] |
| --- | --- | --- | --- | --- | --- |
| 0.003 | 0.005 | NCCCC[C@H](NC(=O)[C@@H]1CCCN1C(=O)[C@H](CCCN=C(N)N)NC(=O)[C@@H]1CNC(=O)C[C@H](NC(=O)[C@H](Cc2ccccc2)NC(=O)CNC(=O)CNC(=O)[C@H](Cc2ccc(O)cc2)NCc2ccccc2)C(=O)N[C@H](CCCN=C(N)N)C(=O)N[C@@H](CCCN=C(N)N)C(=O)N1)C(N)=O | < 5.00 | 7.52 | 5.23 |
| 0.007 | 0.04 | CC(=O)NC[C@H](NC(=O)[C@H](CCCNC(=N)N)NC(=O)[C@H](CCCNC(=N)N)NC(=O)[C@@H](CC(N)=O)NC(=O)[C@H](Cc1ccccc1)NC(=O)CNC(=O)CNC(=O)[C@H](Cc1ccc(O)cc1)NCc1ccccc1)C(=O)N[C@@H](CCCNC(=N)N)C(=O)N1CCC[C@H]1C(=O)N[C@@H](CCCCN)C(N)=O | < 5.00 | 7.17 | 5.78 |
| 0.09 | 0.33 | CC[C@H](C)[C@H](NC(=O)[C@H](CCCN=C(N)N)NC(=O)[C@H](CCCN=C(N)N)NC(=O)[C@H](CC(C)C)NC(=O)[C@H](Cc1ccccc1)NC(=O)CNC(=O)CNC(=O)[C@@H](N)Cc1ccc(O)cc1)C(=O)N[C@@H](CCCN=C(N)N)C(=O)N1CCC[C@H]1C(=O)N[C@@H](CCCCN)C(N)=O | 8.21 | 9.24 |  |
